# Experimental data taken from article PMC4700476, “Differential regulation by AMP and ADP of AMPK complexes containing different γ subunit isoforms” (Biochemical Journal, 2016).
# Several values for one entry are separate records, joined by “and”; a condition that tells them apart may be missing. Identical values can stand only once.
# Experiments:
# glucose uptake = system: glucose uptake; parameters: method as in PMID 25695398; settings: mouse skeletal muscle; cited from earlier work
# [1] = system: γ2-containing AMPK complexes in HEK-293 cells expressing FLAG–γ2; parameters: method as in PMID 25695398; settings: anti-FLAG IP; cited from earlier work
# [2] = system: γ3-containing AMPK complexes in mouse skeletal muscle; parameters: method as in PMID 25695398; settings: cited from earlier work
# [3] = system: γ3-containing AMPK complexes in HEK-293 cells expressing FLAG–γ3; parameters: method as in PMID 25695398; settings: anti-FLAG IP; cited from earlier work
# [4] = system: γ1-containing AMPK complexes in mouse skeletal muscle; parameters: method as in PMID 25695398; settings: cited from earlier work
# [5] = system: γ1-containing AMPK complexes in HEK-293 cells expressing FLAG–γ1; parameters: method as in PMID 25695398; settings: anti-FLAG IP; cited from earlier work
# [6] = biological target: T1, AMPK γ2 complex (dephosphorylated, FLAG-tagged human γ2) (Homo sapiens, UniProt Q13131+Q9UGJ0); experiment: Promotion of LKB1-dependent activation and Thr172 phosphorylation; assay type: biochemical; settings: ADP 1 mM, 5 mM ATP
# T1 construct: would have predominantly been the α1β2γ1, α1β2γ2 or α1β2γ3 complexes; expressed in transfected cells; host or cells: HEK-293 (Flp recombinase target site, tetracycline-inducible); anti-FLAG immunoprecipitate
# Protocol: (§1) Cell lysates (140, 500 and 2000 μg of lysate protein for γ1, γ2 and γ3 respectively) were incubated with 100 μl of EZview Red anti-FLAG M2 affinity gel, immunoprecipitated and washed as described previously. The IPs were resuspended in 100 μl of Hepes assay buffer and incubated in an orbital incubator with PP1γ (55 μg in 10 μl) in Hepes assay buffer for 30 min at 30°C. The dephosphorylation reactions were stopped by washing the IPs three times in Hepes assay buffer. The precipitates were then resuspended in 1 ml of Hepes assay buffer and divided into 100-μl aliquots. After centrifugation, 75 μl of each supernatant was removed, 5 μl of okadaic acid (final concentration 25 μM) was added and incubation continued for 5 min at 30°C. After this, AMP or ADP and LKB1 were added as specified and the reaction started by adding a mixture of MgCl2 (final concentration 9.8 mM) and ATP (final concentration 5 mM). Incubation was for 10 min at 30°C, after which the reactions were stopped by washing the IPs three times in Hepes assay buffer. They were resuspended in 400 μl of assay buffer and split for assays and analysis by Western blotting.
# (§2) We next tested whether AMP promoted Thr^172 phosphorylation by LKB1, using complexes containing γ1, γ2 or γ3 expressed in HEK-293 cells and isolated using anti-FLAG antibody. The IPs were treated with the protein phosphatase-1 catalytic subunit (PP1γ) to remove phosphate from Thr^172, were washed to remove PP1γ, and okadaic acid was added to block the activity of any residual phosphatase. They were then treated with limiting quantities of LKB1 in the presence of 5 mM ATP (to mimic physiological conditions), with or without 1 mM AMP.
# (§3) Figure 5 Effect of AMP on activation and Thr^172 phosphorylation of AMPK-γ isoforms induced by upstream kinases (A) Effect of a limiting quantity of LKB1, with or without AMP (1 mM), on AMPK activity. Anti-FLAG IPs from AMPK-γ1-, -γ2- or -γ3-expressing cells were treated with PP1γ to bring about complete dephosphorylation of Thr^172. PP1γ was removed by washing and okadaic acid was added to ensure complete inhibition of any residual phosphatase. The IPs were then incubated for 10 min with 5 mM ATP with or without LKB1 (1 μg) and with or without 1 mM AMP. […] (B) Effect of different concentrations of AMP on activation and Thr^172 phosphorylation of the AMPK-γ1 complex. Experiment as in (A) except using various concentrations of AMP in the presence of 5 mM ATP. Results in the upper panel (means ± S.E.M., n=6) are expressed relative to the control without AMP. Results were fitted to the equation: Y=1+[(activation–1) × X]/(EC50+X), where Y is the relative activity, X is the concentration of AMP, activation is the predicted maximal activation, and EC50 is the concentration of AMP causing half-maximal activation. The continuous line is the curve generated using this equation with the parameters quoted in the text. […] (C) As (A), except that we also tested the effects of 1 mM AMP on activation by CaMKKβ as well as LKB1. The amount of CaMKKβ added (0.34 μg) yielded a similar limited degree of activation to LKB1.
# (§4) Figure 6 Effect of ADP on activation and Thr^172 phosphorylation of AMPK-γ isoforms induced by upstream kinases (A) Effect of AMP or ADP on activation of γ1-, γ2- or γ3-containing AMPK complexes induced by LKB1 in the presence of 5 mM ATP. Dephosphorylated AMPK complexes were generated as in Figure 3(A) and were incubated for 10 min with LKB1 with or without AMP (300 μM), ADP (1 mM) or the 5′-nucleotidase CD73 (0.86 μg). […] (B) Duplicate blots from the experiment shown in (A). (C) Effect of ADP on activation of AMPK-γ1 complexes by LKB1 in the presence of 5 mM ATP. The experiment was performed as in (A) except with various concentrations of ADP. Results (means ± S.E.M., n=3) are expressed relative to the basal activity in the absence of ADP and were fitted to the equation used for Figure 3(B). […]
# [7] = system: AMPK γ1 complex (dephosphorylated, FLAG-tagged human γ1); experiment: as above; assay type: biochemical; settings: 5 mM ATP, imprecise estimate, read-out: IC50 for the inhibitory effect on activation by LKB1
# Protocol: as §1, §2, §3, §4
# [8] = biological target: T2, AMPK γ1 complex (dephosphorylated, FLAG-tagged human γ1) (Homo sapiens, UniProt P54619+Q13131); experiment: as above; assay type: biochemical; settings: 5 mM ATP
# T2 construct: would have predominantly been the α1β2γ1, α1β2γ2 or α1β2γ3 complexes; expressed in transfected cells; host or cells: HEK-293 (Flp recombinase target site, tetracycline-inducible); anti-FLAG immunoprecipitate
# Protocol: as §1, §2, §3, §4
# [9] = biological target: T3, AMPK γ3 complex (dephosphorylated, FLAG-tagged human γ3) (Homo sapiens, UniProt Q13131+Q9UGI9); experiment: as above; assay type: biochemical; settings: ADP 1 mM, 5 mM ATP
# T3 construct: would have predominantly been the α1β2γ1, α1β2γ2 or α1β2γ3 complexes; expressed in transfected cells; host or cells: HEK-293 (Flp recombinase target site, tetracycline-inducible); anti-FLAG immunoprecipitate
# Protocol: as §1, §2, §3, §4
# [10] = biological target: T4, AMPK γ2 complex (FLAG-tagged human γ2) (Homo sapiens, UniProt Q13131+Q9UGJ0); experiment: Protection against inactivation and Thr172 dephosphorylation by PP2Cα; assay type: biochemical; settings: 5 mM ATP, read-out: half-maximal effect for protection against inactivation by PP2Cα
# T4 construct: would have predominantly been the α1β2γ1, α1β2γ2 or α1β2γ3 complexes; expressed in transfected cells; host or cells: HEK-293 (Flp recombinase target site, tetracycline-inducible); anti-FLAG immunoprecipitate
# Protocol: (§5) AMPK was activated by incubating the cells in phenformin (10 mM) for 60 min prior to cell lysis. Cell lysates (225, 225 and 455 μg of lysate protein for γ1, γ2 and γ3 respectively) were incubated with 100 μl of EZview Red anti-FLAG M2 affinity gel beads at 4°C for 2 h on a roller mixer. The beads were washed twice with 1 ml of immunoprecipitation buffer and twice with 1 ml of Hepes assay buffer, resuspended in 1 ml of assay buffer and divided into 100-μl aliquots. The beads were recovered by centrifugation and 75 μl of the supernatant removed. In a final volume of 50 μl, AMP, ADP (as specified), ATP (5 mM) and PP2Cα (1.5 μg) were added and the reaction was started by adding MgCl2 (9.8 mM) to activate PP2Cα; the reactions were then conducted in a shaking incubator at 30°C for 10 min. They were stopped by washing the beads three times in assay buffer, resuspending them in 400 μl of assay buffer and dividing them into aliquots for kinase assays and analysis by Western blotting.
# (§6) Finally, we addressed the effects of AMP and ADP on the dephosphorylation of γ1, γ2 and γ3 complexes by the protein phosphatase PP2Cα. Cells expressing γ1, γ2 or γ3 complexes were treated with phenformin to promote Thr^172 phosphorylation, the complexes were then isolated by immunoprecipitation and equal amounts (based on anti-FLAG blots) were treated with a limiting quantity of PP2Cα in the presence of increasing concentrations of AMP or ADP. As before, in order to simulate physiological conditions, these assays were performed in the presence of 5 mM ATP. […] The similar effects of AMP on all three complexes were confirmed by Western blot analysis using anti-pThr^172 antibodies (lower panel). The effects of ADP are shown in Figure 7(B); similar to results previously obtained with rat liver AMPK [28]
# (§7) Figure 7 Effect of AMP and ADP on protection against Thr^172 dephosphorylation, measured at 5 mM ATP (A) […], -γ2 or -γ3 complexes were immunoprecipitated from cells treated with phenformin to cause maximal Thr^172 phosphorylation. The IPs were then incubated for 10 min with the protein phosphatase PP2Cα in the presence of 5 mM ATP and various concentrations of AMP. Inactivation was assessed by kinase assays (top panel) and Thr^172 dephosphorylation by Western blot (bottom panels). Results (means ± S.E.M., n=2) in the top panel are shown as percentage protection, which is the inactivation compared with control (without AMP), expressed as a percentage of the inactivation compared with control at the highest concentration of AMP used. Results were fitted to the equation Y=100 × X/(EC50+X) where Y is the percentage protection, X is the concentration of AMP, and EC50 is the concentration of AMP causing half-maximal protection. The continuous lines are the curves generated using this equation using the best-fit parameters quoted in the text. […] (B) As (A), but varying ADP in place of AMP.
# [11] = biological target: T5, AMPK γ1 complex (FLAG-tagged human γ1) (Homo sapiens, UniProt P54619+Q13131); experiment: as above; assay type: biochemical; settings: 5 mM ATP, read-out: half-maximal effect for protection against inactivation by PP2Cα
# T5 construct: would have predominantly been the α1β2γ1, α1β2γ2 or α1β2γ3 complexes; expressed in transfected cells; host or cells: HEK-293 (Flp recombinase target site, tetracycline-inducible); anti-FLAG immunoprecipitate
# Protocol: as §5, §6, §7
# [12] = biological target: T6, AMPK γ3 complex (FLAG-tagged human γ3) (Homo sapiens, UniProt Q13131+Q9UGI9); experiment: as above; assay type: biochemical; settings: 5 mM ATP, read-out: half-maximal effect for protection against inactivation by PP2Cα
# T6 construct: would have predominantly been the α1β2γ1, α1β2γ2 or α1β2γ3 complexes; expressed in transfected cells; host or cells: HEK-293 (Flp recombinase target site, tetracycline-inducible); anti-FLAG immunoprecipitate
# Protocol: as §5, §6, §7
# T2 sequence (P54619 whole entry): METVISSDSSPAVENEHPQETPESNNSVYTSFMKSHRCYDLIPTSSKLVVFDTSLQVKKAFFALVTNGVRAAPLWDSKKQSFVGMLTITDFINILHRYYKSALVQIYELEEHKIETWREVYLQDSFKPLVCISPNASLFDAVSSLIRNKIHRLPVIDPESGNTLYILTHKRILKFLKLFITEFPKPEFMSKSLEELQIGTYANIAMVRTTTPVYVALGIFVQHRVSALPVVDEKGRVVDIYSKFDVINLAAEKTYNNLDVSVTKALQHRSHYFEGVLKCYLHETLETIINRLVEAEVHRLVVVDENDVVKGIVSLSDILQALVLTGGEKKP
# T2 sequence (Q13131 whole entry): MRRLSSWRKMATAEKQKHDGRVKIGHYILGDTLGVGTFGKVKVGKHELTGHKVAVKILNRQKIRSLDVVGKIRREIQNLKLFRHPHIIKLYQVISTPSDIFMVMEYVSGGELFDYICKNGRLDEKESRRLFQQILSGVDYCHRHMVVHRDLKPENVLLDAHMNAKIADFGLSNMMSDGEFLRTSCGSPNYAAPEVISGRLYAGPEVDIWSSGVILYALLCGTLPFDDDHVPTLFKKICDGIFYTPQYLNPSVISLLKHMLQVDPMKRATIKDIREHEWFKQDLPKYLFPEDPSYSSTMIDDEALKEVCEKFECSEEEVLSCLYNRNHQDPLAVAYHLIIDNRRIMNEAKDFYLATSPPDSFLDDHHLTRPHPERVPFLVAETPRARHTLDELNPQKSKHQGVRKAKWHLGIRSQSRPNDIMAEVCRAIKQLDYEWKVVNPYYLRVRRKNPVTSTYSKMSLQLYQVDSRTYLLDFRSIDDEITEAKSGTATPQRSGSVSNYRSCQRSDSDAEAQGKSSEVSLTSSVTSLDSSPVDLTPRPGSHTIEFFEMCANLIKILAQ
# T2 sequence (O43741 whole entry partner): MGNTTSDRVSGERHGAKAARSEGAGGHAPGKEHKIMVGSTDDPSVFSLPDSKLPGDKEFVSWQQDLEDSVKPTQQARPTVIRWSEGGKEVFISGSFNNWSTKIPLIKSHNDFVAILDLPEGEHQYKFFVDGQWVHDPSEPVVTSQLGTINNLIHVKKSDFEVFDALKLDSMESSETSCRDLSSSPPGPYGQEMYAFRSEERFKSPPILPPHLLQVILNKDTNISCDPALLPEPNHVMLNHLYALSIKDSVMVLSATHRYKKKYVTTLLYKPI
# T5 sequence (P54619 whole entry): as the sequence (P54619 whole entry) above
# T5 sequence (Q13131 whole entry): as the sequence (Q13131 whole entry) above
# T5 sequence (O43741 whole entry partner): as the sequence (O43741 whole entry partner) above
# T1 sequence (Q9UGJ0 whole entry): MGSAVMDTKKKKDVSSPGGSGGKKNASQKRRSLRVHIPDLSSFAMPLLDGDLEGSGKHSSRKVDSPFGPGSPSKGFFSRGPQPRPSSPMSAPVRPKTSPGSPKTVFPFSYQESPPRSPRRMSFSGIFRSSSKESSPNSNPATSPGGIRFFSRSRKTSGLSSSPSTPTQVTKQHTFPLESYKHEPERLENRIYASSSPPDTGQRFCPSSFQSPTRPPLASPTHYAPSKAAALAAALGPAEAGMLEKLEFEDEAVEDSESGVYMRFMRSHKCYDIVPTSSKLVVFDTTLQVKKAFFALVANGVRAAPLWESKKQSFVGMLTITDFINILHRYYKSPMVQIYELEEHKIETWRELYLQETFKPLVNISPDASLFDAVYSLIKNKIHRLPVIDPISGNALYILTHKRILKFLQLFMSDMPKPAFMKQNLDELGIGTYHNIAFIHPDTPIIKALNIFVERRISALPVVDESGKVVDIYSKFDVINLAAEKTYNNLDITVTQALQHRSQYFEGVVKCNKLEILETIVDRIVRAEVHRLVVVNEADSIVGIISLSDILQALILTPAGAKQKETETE
# T1 sequence (Q13131 whole entry): as the sequence (Q13131 whole entry) above
# T1 sequence (O43741 whole entry partner): as the sequence (O43741 whole entry partner) above
# T4 sequence (Q9UGJ0 whole entry): as the sequence (Q9UGJ0 whole entry) above
# T4 sequence (Q13131 whole entry): as the sequence (Q13131 whole entry) above
# T4 sequence (O43741 whole entry partner): as the sequence (O43741 whole entry partner) above
# T6 sequence (Q9UGI9 whole entry): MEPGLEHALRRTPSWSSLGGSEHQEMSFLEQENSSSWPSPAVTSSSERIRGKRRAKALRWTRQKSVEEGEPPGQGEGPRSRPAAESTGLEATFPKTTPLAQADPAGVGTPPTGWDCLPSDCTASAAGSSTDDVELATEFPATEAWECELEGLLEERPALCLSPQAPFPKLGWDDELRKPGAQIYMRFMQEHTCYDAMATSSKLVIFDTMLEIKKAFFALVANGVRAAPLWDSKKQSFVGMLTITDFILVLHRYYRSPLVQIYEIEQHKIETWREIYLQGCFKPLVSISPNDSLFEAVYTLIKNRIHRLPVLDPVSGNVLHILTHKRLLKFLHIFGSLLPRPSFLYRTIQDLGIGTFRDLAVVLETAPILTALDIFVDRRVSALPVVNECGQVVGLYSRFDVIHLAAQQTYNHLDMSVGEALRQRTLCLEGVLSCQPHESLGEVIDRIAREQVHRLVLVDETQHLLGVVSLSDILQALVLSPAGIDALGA
# T6 sequence (Q13131 whole entry): as the sequence (Q13131 whole entry) above
# T6 sequence (O43741 whole entry partner): as the sequence (O43741 whole entry partner) above
# T3 sequence (Q9UGI9 whole entry): as the sequence (Q9UGI9 whole entry) above
# T3 sequence (Q13131 whole entry): as the sequence (Q13131 whole entry) above
# T3 sequence (O43741 whole entry partner): as the sequence (O43741 whole entry partner) above
SMILES,glucose uptake (glucose uptake),activation of complex in HEK-293 cells [1],activation of γ3-containing complexes [2],activation of complex in HEK-293 cells [3],activation of γ1-containing complexes [4],activation of complex in HEK-293 cells [5],effect on activation by LKB1 [6],IC50 [7],"EC50 ([8]; imprecise estimate, read-out: EC50 for the activating effect on activation by LKB1)",stimulation of activation caused by Thr172 phosphorylation by LKB1 ([8]; ADP),"activation (best-fit, promotion of activation by LKB1) ([8]; various ADP, constrained to be 5-fold or less, confidence limits extremely wide)",effect on activation by LKB1 [9],EC50 [10],EC50 [11],EC50 [12]
Cc1cc(-c2ccc(/C=C3/SC(=Nc4ccc(Cl)c(C(=O)O)c4)NC3=O)o2)c([N+](=O)[O-])cc1C [PT-1],did not promote glucose uptake,all three complexes were activated,not,all three complexes were activated,activates,all three complexes were activated,–,–,–,–,–,–,–,–,–
Nc1ncnc2c1ncn2[C@@H]1O[C@H](COP(=O)(O)OP(=O)(O)O)[C@@H](O)[C@H]1O [ADP],–,–,–,–,–,–,not significant,6800 ± 3100 µM,1800 µM and ≥ 1000 µM,~2 fold,5 fold,not significant,180 ± 20 µM,910 ± 70 µM,980 ± 150 µM
